Data: patent US20260216144A1, “TARGETING MB2 OF THE MYC ONCOGENE AND ITS INTERACTION WITH TRRAP IN CANCER” (priority 2019, published 2026)

Assays:
[1] = biological target: MYC:TRRAP interaction (Homo sapiens, UniProt P01106+Q9Y4A5); assay: MYC:TRRAP in-cell luminescence complementation assay (NanoBiT; SmB-MYC 1-190 and TRRAP 2033-2283-LgB in HeLa cells); type: cell-based
Method in brief: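 HeLa cells transfected with SmB-MYC 1-190, TRRAP 2033-2283-LgB and EGFP reporter (6.7:60:33.3 ng plasmid per well); two days later treated 2 h with compounds at 25 μM. NanoBiT luminescence normalized to EGFP fluorescence; hits retested at 10 μM and counter-screened on LgB/SmB alone.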

[2] = biological target: T1, endogenous MYC:TRRAP complex (Homo sapiens, UniProt P01106+Q9Y4A5); assay: co-IP of the endogenous MYC:TRRAP complex from HeLa cells incubated with compounds; type: cell-based; conditions: for inhibition of MYC:TRRAP complex formation: luminescence assay and co-IP assay, compared to DMSO vehicle control, FIG. 24A
T1 construct: immunoprecipitation experiments using endogenous full length MYC and TRRAP
T1 sequence (P01106 16-454): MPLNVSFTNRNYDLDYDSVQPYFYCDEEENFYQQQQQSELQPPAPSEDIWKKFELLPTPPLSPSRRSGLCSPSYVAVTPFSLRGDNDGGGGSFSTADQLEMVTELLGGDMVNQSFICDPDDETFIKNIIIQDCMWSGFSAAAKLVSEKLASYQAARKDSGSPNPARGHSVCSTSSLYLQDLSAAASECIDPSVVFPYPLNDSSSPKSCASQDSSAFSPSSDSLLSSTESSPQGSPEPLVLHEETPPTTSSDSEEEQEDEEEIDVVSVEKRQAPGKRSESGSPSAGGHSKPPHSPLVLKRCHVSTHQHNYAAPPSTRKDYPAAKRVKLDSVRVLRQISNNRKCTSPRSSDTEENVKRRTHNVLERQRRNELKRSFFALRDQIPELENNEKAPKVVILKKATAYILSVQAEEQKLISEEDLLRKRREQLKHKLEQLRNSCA
T1 sequence (Q9Y4A5 1-3830 isoform Q9Y4A5-2): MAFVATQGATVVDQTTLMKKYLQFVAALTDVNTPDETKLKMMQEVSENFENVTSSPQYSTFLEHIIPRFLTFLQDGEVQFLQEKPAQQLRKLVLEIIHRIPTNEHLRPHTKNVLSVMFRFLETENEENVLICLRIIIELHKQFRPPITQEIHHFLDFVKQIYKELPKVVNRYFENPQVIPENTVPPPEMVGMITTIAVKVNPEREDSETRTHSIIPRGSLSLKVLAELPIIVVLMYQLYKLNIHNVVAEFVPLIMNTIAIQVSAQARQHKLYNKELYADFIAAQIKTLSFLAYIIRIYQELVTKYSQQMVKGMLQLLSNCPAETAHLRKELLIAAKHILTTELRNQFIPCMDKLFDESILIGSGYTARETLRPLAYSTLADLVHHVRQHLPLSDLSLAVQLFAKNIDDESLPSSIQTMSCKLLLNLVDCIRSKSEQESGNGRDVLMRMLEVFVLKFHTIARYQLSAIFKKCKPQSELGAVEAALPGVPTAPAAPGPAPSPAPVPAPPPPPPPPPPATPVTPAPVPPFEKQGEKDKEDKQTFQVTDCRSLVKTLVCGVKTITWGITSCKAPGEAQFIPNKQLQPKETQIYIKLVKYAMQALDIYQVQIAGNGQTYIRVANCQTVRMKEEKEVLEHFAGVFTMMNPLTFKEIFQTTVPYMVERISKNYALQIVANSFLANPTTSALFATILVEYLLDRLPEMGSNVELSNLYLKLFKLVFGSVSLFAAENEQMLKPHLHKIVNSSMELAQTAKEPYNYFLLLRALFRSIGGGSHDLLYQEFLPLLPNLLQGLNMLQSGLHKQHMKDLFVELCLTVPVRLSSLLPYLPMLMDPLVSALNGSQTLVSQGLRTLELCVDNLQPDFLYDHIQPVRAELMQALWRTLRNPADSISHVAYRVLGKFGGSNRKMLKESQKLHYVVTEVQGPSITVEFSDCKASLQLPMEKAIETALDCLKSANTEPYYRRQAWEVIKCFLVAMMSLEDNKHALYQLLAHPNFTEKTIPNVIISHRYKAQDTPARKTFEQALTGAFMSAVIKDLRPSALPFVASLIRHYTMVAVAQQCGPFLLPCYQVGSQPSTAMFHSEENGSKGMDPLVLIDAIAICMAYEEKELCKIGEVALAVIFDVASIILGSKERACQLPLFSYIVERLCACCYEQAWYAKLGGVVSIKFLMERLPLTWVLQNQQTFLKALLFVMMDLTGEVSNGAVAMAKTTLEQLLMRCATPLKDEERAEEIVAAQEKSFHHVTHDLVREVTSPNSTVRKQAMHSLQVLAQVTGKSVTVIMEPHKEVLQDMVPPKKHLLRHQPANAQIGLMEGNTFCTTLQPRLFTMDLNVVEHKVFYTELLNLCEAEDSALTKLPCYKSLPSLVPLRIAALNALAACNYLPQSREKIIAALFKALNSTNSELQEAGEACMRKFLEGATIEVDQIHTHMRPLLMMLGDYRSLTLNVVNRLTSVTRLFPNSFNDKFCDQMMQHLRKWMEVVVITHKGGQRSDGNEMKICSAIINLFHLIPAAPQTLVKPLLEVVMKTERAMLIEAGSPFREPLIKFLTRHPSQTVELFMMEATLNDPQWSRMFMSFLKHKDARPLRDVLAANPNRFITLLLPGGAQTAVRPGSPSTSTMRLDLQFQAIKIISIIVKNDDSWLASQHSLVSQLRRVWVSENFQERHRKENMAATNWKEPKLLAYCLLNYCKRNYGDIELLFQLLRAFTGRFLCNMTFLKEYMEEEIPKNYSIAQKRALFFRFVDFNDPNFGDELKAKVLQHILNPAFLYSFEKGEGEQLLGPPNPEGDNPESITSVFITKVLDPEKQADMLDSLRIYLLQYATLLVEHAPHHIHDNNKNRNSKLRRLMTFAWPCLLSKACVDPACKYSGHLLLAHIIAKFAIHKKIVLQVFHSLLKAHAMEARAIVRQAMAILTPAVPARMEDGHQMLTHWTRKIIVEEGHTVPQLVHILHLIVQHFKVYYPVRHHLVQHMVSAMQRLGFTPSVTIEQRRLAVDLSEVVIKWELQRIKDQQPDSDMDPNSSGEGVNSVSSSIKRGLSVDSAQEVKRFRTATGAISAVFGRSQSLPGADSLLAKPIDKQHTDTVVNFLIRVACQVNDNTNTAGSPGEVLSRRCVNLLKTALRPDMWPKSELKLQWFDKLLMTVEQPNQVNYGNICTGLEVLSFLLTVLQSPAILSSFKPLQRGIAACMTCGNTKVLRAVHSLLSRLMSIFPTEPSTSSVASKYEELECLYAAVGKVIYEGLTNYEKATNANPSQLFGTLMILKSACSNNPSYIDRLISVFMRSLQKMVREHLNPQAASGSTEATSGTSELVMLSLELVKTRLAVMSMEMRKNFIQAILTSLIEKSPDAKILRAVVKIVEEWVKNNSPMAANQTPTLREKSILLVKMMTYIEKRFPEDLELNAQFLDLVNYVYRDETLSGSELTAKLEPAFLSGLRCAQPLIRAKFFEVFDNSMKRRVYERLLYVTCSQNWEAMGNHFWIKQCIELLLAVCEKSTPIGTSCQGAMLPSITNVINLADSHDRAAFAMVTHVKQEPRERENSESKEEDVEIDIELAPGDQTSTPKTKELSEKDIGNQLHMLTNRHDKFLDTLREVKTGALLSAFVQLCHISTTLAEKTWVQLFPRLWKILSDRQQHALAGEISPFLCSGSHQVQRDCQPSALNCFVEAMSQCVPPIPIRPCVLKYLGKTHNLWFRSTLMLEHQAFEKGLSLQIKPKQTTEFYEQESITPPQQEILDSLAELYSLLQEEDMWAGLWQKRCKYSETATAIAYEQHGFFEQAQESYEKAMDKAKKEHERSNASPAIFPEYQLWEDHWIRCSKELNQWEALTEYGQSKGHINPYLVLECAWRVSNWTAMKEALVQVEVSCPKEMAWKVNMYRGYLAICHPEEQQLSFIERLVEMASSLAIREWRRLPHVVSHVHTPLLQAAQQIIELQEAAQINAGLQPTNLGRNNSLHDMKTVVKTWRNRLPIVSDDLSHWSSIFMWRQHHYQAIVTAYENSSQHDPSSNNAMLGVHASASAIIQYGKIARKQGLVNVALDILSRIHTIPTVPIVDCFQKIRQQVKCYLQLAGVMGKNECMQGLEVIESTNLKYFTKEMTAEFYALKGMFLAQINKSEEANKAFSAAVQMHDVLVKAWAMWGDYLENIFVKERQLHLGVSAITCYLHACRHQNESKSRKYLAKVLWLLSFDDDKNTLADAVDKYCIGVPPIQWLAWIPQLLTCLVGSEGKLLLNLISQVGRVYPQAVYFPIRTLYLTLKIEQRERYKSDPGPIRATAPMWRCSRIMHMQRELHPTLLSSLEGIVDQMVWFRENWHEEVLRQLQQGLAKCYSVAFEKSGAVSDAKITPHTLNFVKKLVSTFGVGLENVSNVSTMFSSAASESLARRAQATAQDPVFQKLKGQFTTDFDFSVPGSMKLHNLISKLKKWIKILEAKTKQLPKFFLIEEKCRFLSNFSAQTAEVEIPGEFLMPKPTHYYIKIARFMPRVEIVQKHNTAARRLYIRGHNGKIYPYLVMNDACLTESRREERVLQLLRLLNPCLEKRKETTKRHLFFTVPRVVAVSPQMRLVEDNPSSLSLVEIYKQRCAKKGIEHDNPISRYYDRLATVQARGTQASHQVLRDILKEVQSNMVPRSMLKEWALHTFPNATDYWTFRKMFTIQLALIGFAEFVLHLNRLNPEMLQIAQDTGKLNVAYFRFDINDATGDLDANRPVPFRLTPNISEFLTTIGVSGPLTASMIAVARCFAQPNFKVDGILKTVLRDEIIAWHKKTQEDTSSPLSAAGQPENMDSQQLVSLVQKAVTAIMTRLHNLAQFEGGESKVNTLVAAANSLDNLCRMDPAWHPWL
Method: (§1) FIGS. 23A-23B show the results of co-IP assay experiments comparing the top 17 hits in immunoprecipitation experiments using endogenous full length MYC and TRRAP. In these experiments immunocomplexes were immunoprecipitated with anti-MYC beads in the presence of 25 μM of each of the 17 top compounds. Experiments were carried out in cells (compounds were added to the media of cells) (FIG. 23B) or in vitro (compounds were added directly to the purified complex on pre-washed beads) (FIG. 23A). Immunoprecipitation of TRRAP was normalized to the immunoprecipitation of MYC.
The indicated TRRAP constructs were cloned into a CMV-driven plasmid containing an N-terminal FLAG tag as previously described (23). Full-length wild-type (WT) MYC and MYC ΔMB2 (A129-145), and the indicated MYC constructs were cloned into the same CMV-driven plasmid but containing a Glu-Glu (PYO) tag instead. HEK293T cells were co-transfected with equal amounts of each plasmid using LipoD293™ In vitro DNA Transfection Reagent per protocol (SignaGen). Cells were plated subconfluently 16-20 hours prior to transfection. After 24 hours, cells were lysed in F-buffer (10 mM TRIS pH 7.5, 50 mM NaCl, 30 mM sodium pyrophosphate, […], 10% glycerol, 1% Triton-X, 50 mM NaF) supplemented with 1 mM PMSF, 10 μM Leupeptin, 10 μM Pepstatin-A, and 10 μg/mL Aprotinin for immunoprecipitations and co-immunoprecipitations. Immunoprecipitations were performed using anti-FLAG (Sigma Aldrich), anti-PYO (Covance), or anti-MYC (C33 Santa Cruz Biotechnology) agarose preconjugated beads. Co-immunoprecipitation was analyzed by western blots with the following antibodies: MYC (sc-764 Santa Cruz Biotechnology), TRRAP (A301-132A Bethel Laboratories), FLAG (F7425 Sigma Aldrich), and PYO (Covance).
Co-IP experiments of the endogenous MYC:TRRAP complex were carried out to validate the results from the MYC:TRRAP in-cell luminescence complementation screen performed. HeLa cells were again subjected to the effects of incubation with each of the 17 compounds from FIG. 16 for 2 h before analysis. FIG. 19, FIG. 20, and FIG. 21 present the effects of these compounds on the endogenous MYC:TRRAP and MYC:MAX complexes. Like before, all compounds except for 7 and 11 had no effect on the levels of MYC or TRRAP. […] Incubation with some of the compounds that scored positive by the in-cell luminescence complementation screen had the predicted effect on the endogenous MYC:TRRAP complex. This validates the preliminary compound screen and presents the completion of a major milestone in the effort to therapeutically target MYC in cancer.

[3] = biological target: T2, MYC:TRRAP complexes (Homo sapiens, UniProt P01106+Q9Y4A5); assay: in vitro co-IP (compounds added directly to the purified MYC:TRRAP complex on pre-washed beads); type: binding; conditions: in vitro by co-IP; normalized to protein levels; FIG. 26B; read-out: IC50 for the inhibition of MYC:TRRAP
T2 construct: immunoprecipitation experiments using endogenous full length MYC and TRRAP
T2 sequence (P01106 16-454): as the sequence (P01106 16-454) above
T2 sequence (Q9Y4A5 1-3830 isoform Q9Y4A5-2): as the sequence (Q9Y4A5 1-3830 isoform Q9Y4A5-2) above
Method: as §1
This represents an ^~10-fold increase in activity from NSC657456.

[4] = Table 2, compounds with >80% similarity to compound 10 (NSC657456), 10 uM
[5] = Table 1, 46 primary hits at 10 uM, HeLa cells, triplicate measurements

MYC:TRRAP interaction, sequence (P01106 16-205): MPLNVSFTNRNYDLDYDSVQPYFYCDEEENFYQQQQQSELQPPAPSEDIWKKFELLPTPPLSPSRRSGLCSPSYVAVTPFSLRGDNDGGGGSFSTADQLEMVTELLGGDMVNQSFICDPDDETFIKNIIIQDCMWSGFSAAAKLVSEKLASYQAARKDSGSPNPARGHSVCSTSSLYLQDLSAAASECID
MYC:TRRAP interaction, sequence (Q9Y4A5 2051-2301): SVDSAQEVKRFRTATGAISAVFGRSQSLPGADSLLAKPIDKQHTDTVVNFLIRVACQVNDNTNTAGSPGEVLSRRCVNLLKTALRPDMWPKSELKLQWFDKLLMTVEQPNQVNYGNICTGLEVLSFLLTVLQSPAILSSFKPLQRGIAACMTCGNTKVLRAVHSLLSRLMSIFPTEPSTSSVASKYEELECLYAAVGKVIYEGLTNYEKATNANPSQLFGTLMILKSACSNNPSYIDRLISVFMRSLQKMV

Structure (SMILES)	% Inhibition 10 uM [1, 4] [%]	% Inhibition 10 uM [1, 5] [%]	other results
COc1cc(C=C2S/C(=N/Nc3nc(-c4ccc(Br)cc4)cs3)N=C2O)cc(OC)c1OC (stereo in doubt) [Compound 10N, (2E,5Z)-2-[[4-(4-bromophenyl)-1,3-thiazol-2-yl] hydrazinylidene]-5-[(3,4,5-trimethoxy-phenyl)methylidene]-1,3-thiazolidin-4-one]	88.1	–	inhibition of the endogenous MYC:TRRAP interaction ([2]; FIG. 24): do not inhibit the endogenous MYC:TRRAP interaction; inhibition of MYC:TRRAP complex formation [2]: 20%
Oc1[nH]c2ccccc2c1/N=N/c1nc(-c2ccccc2)cs1 [Compound 1024, 3-[(4-phenyl-1,3-thiazol-2-yl)diazenyl]-1H-indol-2-ol]	39.63	–	concentration that inhibits MYC:TRRAP complex formation ([1]; FIG. 25, 26): 3 to 5 µM; increase in activity from NSC657456 ([1]; compared with NSC657456): ~ 10 fold; IC50 ([1]; in cells, in-cell luminescence complementation assay, normalized to MYC and TRRAP protein levels, FIG. 26A, read-out: IC50 for the inhibition of MYC:TRRAP): 4.7 µM; IC50 [3]: 3.7 µM
Oc1[nH]c2ccccc2c1/N=N/c1nc(-c2ccc(Br)cc2)cs1 [Compound 10, 3-[[4-(4-bromophenyl)-1,3-thiazol-2-yl]diazenyl]-1H-indol-2-ol]	73.56	58.98	inhibition of MYC:TRRAP binding ([1]; most consistent inhibition in multiple assays): ~ 50%; inhibitory activity on immunoprecipitation of TRRAP normalized to MYC ([2]; 25 μM, top 17 hits, in cells or in vitro, FIG. 23A-23B): greatest inhibitory activity; inhibition of MYC:TRRAP complex formation [2]: 70%
C=CC/N=C(S)/N=N/c1c(O)[nH]c2ccccc12 [Compound 1018]	77.04	–	–
Cc1ccc(NC(=S)C#N)c(C)c1 [Compound 26, 1-cyano-N-(2,4-dimethylphenyl) methanethioamide]	–	90.89	–
Oc1[nH]c2ccccc2c1/N=N/c1nc(-c2ccc(Cl)c(Cl)c2)cs1 [Compound 1025, 3-[[4-(3,4-dichlorophenyl)-1,3-thiazol-2-yl]diazenyl]-1H-indol-2-ol]	53.24	–	–
O=C1CSC(/N=N/c2c(O)[nH]c3ccccc23)=N1 [Compound 1016, 2-[(2-hydroxy-1H-indol-3-yl)diazenyl]-1,3-thiazol-4-one]	104.5	–	–
C/N=c1\sc2c(n1C)C(=O)c1ccccc1C2=O [Compound 13, 3-methyl-2-methyliminobenzo [f][1,3] benzothiazole-4,9-dione]	–	68.66	–
Nc1ccc(/N=N/c2ccccc2)c2ccccc12 [Compound 3, 4-phenyldiazenylnaph-thalen-1-amine]	–	22.41	–
Cc1ccc2c(c1)C(=C(C#N)C#N)CCN2 [Compound 18, 2-(6-methyl-2,3-dihydro-1H-quinolin-4-ylidene)propanedi-nitrile]	–	57.21	–
O=[N+]([O-])c1cccc(-c2csc(/N=N/c3c(O)[nH]c4ccccc34)n2)c1 [Compound 1022, 3-[[4-(3-nitrophenyl)-1,3-thiazol-2-yl]diazenyl]-1H-indol-2-ol]	54.58	–	–
N=C1C=C(N)C(=O)c2nc(O)ccc21 [Compound 11, 7-amino-5-imino-1H-quinoline-2,8-dione]	–	–	% Inhibition 10 uM ([1]; Table 1, 46 primary hits at 10 uM, HeLa cells, triplicate measurements, 10 µM): 46.89%; % Inhibition 10 uM ([1]; Table 1, 46 primary hits at 10 uM, HeLa cells, triplicate measurements, listed as 43, 10 µM): 57.34%
COC(=O)[C@H]1[C@H]2C[C@@H]3c4[nH]c5ccccc5c4CCN3C[C@H]2C[C@@H](OC(=O)c2cc(OC)c(OC)c(OC)c2)[C@@H]1OC [Compound 42, methyl (1R,15S,17R,18R, 19S,20S)-18-methoxy-17-(3,4,5-trimethoxybenzoyl) oxy-1,3,11,12,14,15,16, 17,18,19,20,21-dodecahydro-yohimban-19-carboxylate]	–	102.5	–
COc1cccc2c1C(=O)c1c(O)c3c(c(O)c1C2=O)C[C@@](O)(C(C)=O)C[C@@H]3OC1CC(N(Cc2ccccc2)Cc2ccccc2)C(O)C(C)O1.Cl (stereo partly drawn) [Compound 34, (7S,9S)-9-acetyl-7-[4-(dibenzylamino)-5-hydroxy-6-methyloxan-2-yl]oxy-6,9,11-trihydroxy-4-methoxy-8,10-dihydro-7H-tetracene-5,12-dione; hydrochloride]	–	78.65	–
Oc1[nH]c2ccccc2c1/N=N/C(S)=N/c1ccccc1 [Compound 105, 1-[(2-hydroxy-1H-indol-3-yl)imino]-3-phenylthiourea]	65.25	–	–
Cc1cc(N(C)C)ccc1/N=N/c1ccc2ncccc2c1 [Compound 12, N,N,3-trimethyl-4-(quinolin-6-yldiazenyl)aniline]	–	58.86	–
N[C@@H](Cc1ccc2oc3cc(=O)c4ccccc4c-3nc2c1)C(=O)O.O=[N+]([O-])O [Compound 36, (2S)-2-amino-3-(5-oxobenzo[a]pheno-xazin-10-yl)propanoic acid; nitric acid]	–	73.39	–
COc1c2c(c(CC=C(C)C)c3oc(=O)c(-c4ccc(O)cc4)c(O)c13)OC(C)(C)C=C2 [Compound 24, 6-hydroxy-7-(4-hydroxyphenyl)-5-methoxy-2,2-dimethyl-10-(3-methylbut-2-enyl)pyrano[3,2-g]chromen-8-one]	–	41.01	–
NC(=O)/N=N/c1c(O)n(O)c2ccccc12 [Compound 106, (1,2-dihydroxyindol-3-yl)iminourea]	127.3	–	–
Nn1c(S)nnc1/N=N/c1c(O)[nH]c2ccccc12 [Compound 1021, 4-amino-3-[(2-hydroxy-1H-indol-3-yl)diazenyl]-1H-1,2,4-triazole-5-thione]	71.88	–	–
Cc1nc(/N=N/c2ccccc2)[nH]c1/N=N/c1ccccc1 [Compound 16, (5-methyl-2-phenyldiazenyl-1H-imidazol-4-yl)-phenyldiazene]	–	62.4	–
Oc1[nH]c2ccccc2c1/N=N/c1ccccc1Cl [Compound 1011, 3-[(2-chlorophenyl)diazenyl]-1H-indol-2-ol]	64.75	–	–
N#C/C(S)=N/c1ccc(F)cc1 [Compound 19, 1-cyano-N-(4-fluorophenyl) methanethioamide]	–	92.01	–
